Data reported in patent US11524940B1, “Inhibitors of cysteine proteases and methods of use thereof” (priority 2020, dated 2022).
Read-outs that look alike come from different tables or passages of the source.

Molecular target: 229E Mpro (Human coronavirus 229E (HCoV-229E), UniProt P0C6X1)
Assay: 229E Mpro activity
Type: biochemical
Method: Compounds are assayed using standard methods to assess compound activity and IC50. […] The assay buffer contains 20 mM of Tris-HCl (pH 7.3), 100 mM of NaCl, 1 mM of EDTA, 5mM of TCEP and 0.1% BSA.

Chain of 229E Mpro (P0C6X1 2966-3267 limits assumed): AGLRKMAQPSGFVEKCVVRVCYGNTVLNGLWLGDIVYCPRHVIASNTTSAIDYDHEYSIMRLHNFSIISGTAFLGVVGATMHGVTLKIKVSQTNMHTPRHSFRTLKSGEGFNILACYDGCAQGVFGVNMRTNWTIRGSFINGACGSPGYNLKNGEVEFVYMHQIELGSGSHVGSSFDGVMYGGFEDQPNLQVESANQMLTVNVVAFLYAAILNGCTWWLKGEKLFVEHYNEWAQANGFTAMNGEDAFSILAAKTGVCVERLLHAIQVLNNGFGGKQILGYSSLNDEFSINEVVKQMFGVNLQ

Structure (SMILES)	EC50 (read-out: 229E Mpro EC50) [nM]	EC50 (229E Mpro EC50) [nM]
CCNC(C#N)[C@H](C[C@@H]1CCNC1=O)NC(=O)[C@H](CC(C)C)NC(=O)c1cc2c(OC)cccc2[nH]1 (single isomer, unassigned) [511 (Isomer 2)]	< 2000	
N#C[C@H](C[C@@H]1CCCNC1=O)NC(=O)[C@H](CC1CC1)NC(=O)c1cc2c(C(F)(F)F)cccc2[nH]1 [Compound 856, N-((S)-1-(((S)-1-cyano-2-((S)-2-oxopiperidin-3-yl)ethyl)amino)-3-cyclopropyl-1-oxopropan-2-yl)-4-(trifluoromethyl)-1H-indole-2-carboxamide]	< 2000	
N#C[C@H](C[C@@H]1CCCNC1=O)NC(=O)C1CC2(CCC2)CN1C(=O)c1cc2cccc(Cl)c2[nH]1 (single isomer, unassigned) [729 (Isomer 2)]	< 2000	
COc1cccc2[nH]c(C(=O)N3C[C@H](C(F)(F)F)C[C@H]3C(=O)N[C@H](C#N)C[C@@H]3CCNC3=O)cc12 [Compound 549, (2S,4R)-N-[(1S)-1-cyano-2-[(3S)-2-oxopyrrolidin-3-yl]ethyl]-1-(4-methoxy-1H-indole-2-carbonyl)-4-(trifluoromethyl)pyrrolidine-2-carboxamide]	< 2000	
COc1cccc2[nH]c(C(=O)N[C@H](C(=O)N[C@H](C#N)C[C@@H]3CCNC3=O)C3CC4CC4C3)cc12 (some centres unmarked) [Compound 499]	< 2000	
COCCOCCOc1cccc2[nH]c(C(=O)NC(CC(C)(C)C)C(=O)NC(C#N)CC3CCCNC3=O)cc12 (single isomer, unassigned) [875 (Isomer 3)]	10000 to 30000	
N#C[C@H](C[C@@H]1CCNC1=O)NC(=O)[C@H](CC1CC1)NC(=O)c1cc2c(Cl)ccc(Cl)c2[nH]1 [Compound 691, 4,7-dichloro-N-[(1S)-2-[[(1S)-1-cyano-2-[(3S)-2-oxopyrrolidin-3-yl]ethyl]amino]-1-(cyclopropylmethyl)-2-oxo-ethyl]-1H-indole-2-carboxamide]	< 2000	
N#C[C@H](C[C@@H]1CCCNC1=O)NC(=O)[C@H](CC1CC1)NC(=O)c1[nH]c2cc(Br)ccc2c1F [Compound 848, 6-bromo-N-[(1S)-2-[[(1S)-1-cyano-2-[(3S)-2-oxo-3-piperidyl]ethyl]amino]-1-(cyclopropylmethyl)-2-oxo-ethyl]-3-fluoro-1H-indole-2-carboxamide]	< 2000	
COc1cccc2[nH]c(C(=O)N3CC4(CCC4)CC3C(=O)N[C@H](C#N)C[C@@H]3CCNC3=O)cc12 (single isomer, unassigned) [399A (Isomer 1)]	< 2000	
N#C[C@H](C[C@@H]1CCCNC1=O)NC(=O)[C@H](CC1CC1)NC(=O)c1cc2c(Cl)cccc2[nH]1 [Compound 812, 4-chloro-N-[(1S)-2-[[(1S)-1-cyano-2-[(3S)-2-oxo-3-piperidyl]ethyl]amino]-1-(cyclopropylmethyl)-2-oxo-ethyl]-1H-indole-2-carboxamide]	< 2000	
N#C[C@H](C[C@@H]1CCNC1=O)NC(=O)[C@H](CC1CC1)N1CCC2(CCCN2)C1=O (stereo partly drawn) [Compound 471, N-[(1S)-1-cyano-2-[(3S)-2-oxopyrrolidin-3-yl]ethyl]-3-cyclopropyl-2-(6-oxo-1,7-diazaspiro[4.4]nonan-7-yl)propanamide]	10000 to 30000	
COc1cccc2[nH]c(C(=O)N[C@@H](CC(C)C)C(=O)N[C@@H](C[C@@H]3CCNC3=O)C(C#N)NCC(=O)O)cc12 (single isomer, unassigned) [653 (Isomer 2)]	< 2000	
CC(C)(C)C[C@H](NC(=O)c1cc2c(F)cccc2[nH]1)C(=O)N[C@H](C#N)C[C@@H]1CCCNC1=O [Compound 816]	> 30000	
COc1cccc2[nH]c(C(=O)N3CC4(CC3C(=O)N[C@H](C#N)C[C@@H]3CCCNC3=O)CC(F)(F)C4)cc12 (single isomer, unassigned) [723 (Isomer 1)]		10000 to 30000
COc1cccc2[nH]c(C(=O)N3C[C@H]4CCC[C@H]4[C@H]3C(=O)N[C@H](C#N)C[C@@H]3CCNC3=O)cc12 [Compound 305]	< 2000	
COc1cc(Cl)c2[nH]c(C(=O)N[C@@H](CC3CC3)C(=O)N[C@H](C#N)C[C@@H]3CCNC3=O)cc2c1 [Compound 695, 7-chloro-N-[(1S)-2-[[(1S)-1-cyano-2-[(3S)-2-oxopyrrolidin-3-yl]ethyl]amino]-1-(cyclopropylmethyl)-2-oxo-ethyl]-5-methoxy-1H-indole-2-carboxamide]	< 2000	
COCCOCCOc1cccc2[nH]c(C(=O)N[C@@H](CC3CC3)C(=O)N[C@H](C#N)C[C@@H]3CCCNC3=O)cc12 [Compound 1057, N-[(1S)-2-[[(1S)-1-cyano-2-[(3S)-2-oxo-3-piperidyl]ethyl]amino]-1-(cyclopropylmethyl)-2-oxo-ethyl]-4-[2-(2-methoxyethoxy)ethoxy]-1H-indole-2-carboxamide]	< 2000	
Cc1ccn(C(CC2CC2)C(=O)N[C@H](C#N)C[C@@H]2CCNC2=O)c(=O)c1NC(=O)OC(C)(C)C (single isomer, unassigned) [591 (Isomer 2)]	> 30000	
CCO[C@@H]1C[C@@H](C(=O)N[C@H](C#N)C[C@@H]2CCNC2=O)N(C(=O)c2cc3c(OC)cccc3[nH]2)C1 [Compound 535]	> 30000	
N#C[C@H](C[C@@H]1CCCNC1=O)NC(=O)[C@H](CC1CC1)NC(=O)c1cc2ccc(Cl)c(Cl)c2[nH]1 [Compound 727, 6,7-dichloro-N-[(1S)-2-[[(1S)-1-cyano-2-[(3S)-2-oxo-3-piperidyl]ethyl]amino]-1-(cyclopropylmethyl)-2-oxo-ethyl]-1H-indole-2-carboxamide]	< 2000	
COc1cccc2[nH]c(C(=O)N3CC4(CCC4)CC3C(=O)N[C@H](C#N)C[C@@H]3CCCNC3=O)cc12 (single isomer, unassigned) [719 (Isomer 2)]	< 2000	
N#C[C@H](C[C@@H]1CCNC1=O)NC(=O)C1CC2(CCCCC2)CN1C(=O)c1cc2ccc(Cl)c(Cl)c2[nH]1 (single isomer, unassigned) [986 (Isomer 1)]	< 2000	
N#C[C@H](C[C@@H]1CCCNC1=O)NC(=O)[C@H](CC1CC1)NC(=O)c1cc2cc(Cl)cc(Cl)c2[nH]1 [Compound 842, 5,7-dichloro-N-[(1S)-2-[[(1S)-1-cyano-2-[(3S)-2-oxo-3-piperidyl]ethyl]amino]-1-(cyclopropylmethyl)-2-oxo-ethyl]-1H-indole-2-carboxamide]	< 2000	
COc1cccc2[nH]c(C(=O)N[C@@H](CC3CC3)C(=O)N[C@H](C#N)C[C@@H]3CCCNC3=O)cc12 (single isomer, unassigned) [491 (Isomer 1)]	< 2000	
N#C[C@H](C[C@@H]1CCCNC1=O)NC(=O)[C@H](CC1CC1)NC(=O)c1cc2c(Cl)cncc2[nH]1 [Compound 669, 4-chloro-N-((S)-1-(((S)-1-cyano-2-((S)-2-oxopiperidin-3-yl)ethyl)amino)-3-cyclopropyl-1-oxopropan-2-yl)-1H-pyrrolo[2,3-c]pyridine-2-carboxamide]	< 2000	
COc1cccc2[nH]c(C(=O)N[C@H](C(=O)N[C@H](C#N)C[C@@H]3CCNC3=O)[C@@H]3Cc4ccccc4O3)cc12 [Compound 147, N-((S)-2-(((S)-1-cyano-2-((S)-2-oxopyrrolidin-3-yl)ethyl)amino)-1-((S)-2,3-dihydrobenzofuran-2-yl)-2-oxoethyl)-4-methoxy-1H-indole-2-carboxamide]	> 30000	
